Reference: US8476036B2, “Nonluminogenic assay for living cells” (Promega Corporation, priority 2004, dated 2013)
Marks after values point to notes of the source that are not given here. Numbered stars: 1 amine (or outer) side, 2 acyl side, 3 side chain; on linkers, the order of the positions; unused ones are H or OH. Square brackets hold non-standard residues; d marks the D form. Peptide text beside a SMILES is read from it. * marks the point of attachment. AFC = O=c1cc(C(F)(F)F)c2ccc(N*)cc2o1; Glutaryl = O=C(CCCC(=O)[*:2])[*:1]; AMC = Cc1cc(=O)oc2cc(N*)ccc12; Suc = O=C(CCC(=O)[*:2])[*:1]; Cbz = O=C(OCc1ccccc1)*

Key:
[1] = system: HL-60 or Jurkat; assay: Protease retention substrate selectivity, untreated viable cells; format: cell-based; design: key: None denotes no statistical activity above control population.; (+) to (+++++) denotes the range of activity above control population from modest to robust; (+) to (+++++) denotes the range of activity above control population from modest to robust; (+) to (+++++) denotes the range of activity above control population from modest to robust; (+) to (+++++) denotes the range of activity above control population from modest to robust; (+) to (+++++) denotes the range of activity above control population from modest to robust; details: substrate cleavage activity above control in untreated viable cells; 15-30 minutes at 37° C.
From the text: (§1) Ala-Ala-Phe-AMC was obtained from Promega. Z-Leu-Leu-Val-Tyr-aminoluciferin (LLVY corresponds to SEQ ID NO:18), Z-Leu-Arg-aminoluciferin, Z-Phe-Arg-aminoluciferin, Ala-Ala-Phe-aminoluciferin, (Ala-Ala-Phe)2-R110, and (Gly-Phe)2-R110 were synthesized by Promega Biosciences. Suc-Ala-Ala-Phe-AMC, H-Phe-AMC, H-Tyr-AMC, Glutyl-Ala-Ala-Phe-AMC (EMF corresponds to SEQ ID NO:32), H-Gly-Phe-AMC, Z-Gly-Ala-Met-AMC, Suc-Leu-Leu-Val-Tyr-AMC (LLVY corresponds to SEQ ID NO:18), D-Ala-Leu-Lys-AMC, H-Gly-Ala-AMC, H-Gly-Gly-AMC, Suc-Ala-Ala-Phe-AMC, Z-Arg-Leu-Arg-Gly-Gly-AMC (RLRGG corresponds to SEQ ID NO:29), Z-Leu-Arg-Gly-Gly-AMC (LRGG corresponds to SEQ ID NO:30) and Ac-Ala-Ala-Tyr-AMC were sourced from Bachem. Gly-Phe-AFC, Pro-Phe-Arg-AMC, Gly-Gly-Leu-AMC, and Ser-Tyr-AFC were obtained from Calbiochem. Z-Phe-Arg-AMC and Suc-Arg-Pro-Phe-His-Leu-Leu-Val-Tyr-AMC (RPHLLVY corresponds to SEQ ID NO:31) were purchased from Sigma.
(§2) All substrates were solubilized in DMSO from 10 to 100 mM depending upon inherent solubility. Fluorescent substrates were diluted to 100 μM to 1 mM in 10 mM Hepes, pH 7.5 or matched cell culture medium with 10% serum and added in 1/10th volumes to lysed (freeze fractured, sonicated, or detergent) or untreated viable cells in white-walled, clear bottomed 96-well plates. HL-60 or Jurkat were used in the experimentation interchangeably because of their easily manipulated suspension phenotype. Plates were incubated for 15-30 minutes at 37° C. prior to measuring fluorescence by the CYTOFLUOR® II.
(§3) Luminescent substrates were added to a luciferin detection cake (Promega V859A) resuspended in 2 ml 10 mM Hepes, pH 7.5 to 500 μM. ⅕^th volume of the proluminescent reaction mixes were added to lysed (freeze fractured, sonicated, or detergent) or untreated viable cells in white-walled, clear bottomed 96-well plates. Again, HL-60 or Jurkat were used in the experimentation interchangeably. Plates were incubated at 37° C. in a MeCour' circulating heat block controlled by a Caron 2050W exchange unit. Luminescence was measured between 15 and 30 minutes (signal steady state).
(§4) A broad variety of proteolytic substrates were examined in an effort to characterize potential substrate preferences for protease release or retention in compromised or viable cells (see Table 4). […] Non-blocked substrates (H- and the like) were examined to include the contribution of aminopeptidase activities. From this panel, at least three proteolytic profiles emerged: an aminopeptidase-like activity preferring unblocked Ala-Ala-Phe tripeptide, a proteosomal (chymotrypsin-like) activity measured by release of blocked Leu-Leu-Val-Tyr (SEQ ID NO:18) peptides, and an exceedingly labile activity by Gly-Phe, Gly-Ala, Phe-, Tyr- or Gly-Gly-Leu substrates. The latter activities were only measurable in viable, intact cells. Of further significance is that several fluorophores or proluminescent labels can be used to detect these activities, ultimately allowing for enhanced downstream multiplexing flexibility.

[2] = system: HL-60 or Jurkat; assay: Protease release substrate selectivity, lysed (freeze fractured, sonicated, or detergent) cells; format: cell-based; design: key: None denotes no statistical activity above control population.; (+) to (+++++) denotes the range of activity above control population from modest to robust; (+) to (+++++) denotes the range of activity above control population from modest to robust; (+) to (+++++) denotes the range of activity above control population from modest to robust; (+) to (+++++) denotes the range of activity above control population from modest to robust; (+) to (+++++) denotes the range of activity above control population from modest to robust; details: substrate cleavage activity above control in lysed cells; 15-30 minutes at 37° C.
From the text: as §1, §2, §3, §4

Molecule | Retention [1] | Release [2]
Cc1cc(=O)oc2cc(NC(=O)C(CCCN=C(N)N)NC(=O)C(Cc3ccccc3)NC(=O)OCc3ccccc3)ccc12 (stereo not drawn) [Z-Phe-Arg-AMC] (Cbz-Phe-Arg-{AMC}; configuration not given here) | None^1 | None
Cc1cc(=O)oc2cc(NC(=O)[C@H](Cc3ccccc3)NC(=O)[C@H](C)NC(=O)[C@H](C)NC(=O)CCC(=O)O)ccc12 [Suc-Ala-Ala-Phe-AMC] (Suc-Ala-Ala-Phe-{AMC}) | None | None
Cc1cc(=O)oc2cc(NC(=O)CNC(=O)CNC(=O)[C@H](CCCN=C(N)N)NC(=O)[C@H](CC(C)C)NC(=O)[C@H](CCCN=C(N)N)NC(=O)OCc3ccccc3)ccc12 [Z-Arg-Leu-Arg-Gly-Gly-AMC] | None | None
Cc1cc(=O)oc2cc(NC(=O)C(C)NC(=O)CN)ccc12 (stereo not drawn) [H-Gly-Ala-AMC] | ++ | None
Cc1cc(=O)oc2cc(NC(=O)C(Cc3ccccc3)NC(=O)C(C)NC(=O)C(C)N)ccc12 (stereo not drawn) [Ala-Ala-Phe-AMC] (H-Ala-Ala-Phe-{AMC}; configuration not given here) | None | +++++
CC(=O)NC(C)C(=O)NC(C)C(=O)NC(Cc1ccc(O)cc1)C(=O)Nc1ccc2c(C)cc(=O)oc2c1 (stereo not drawn) [Ac-Ala-Ala-Tyr-AMC] (Ac-Ala-Ala-Tyr-{AMC}; configuration not given here) | None | None
Cc1cc(=O)oc2cc(NC(=O)[C@H](CCCN=C(N)N)NC(=O)[C@H](Cc3ccccc3)NC(=O)[C@@H]3CCCN3)ccc12 [H-Pro-Phe-Arg-AMC] (H-Pro-Phe-Arg-{AMC}) | None | None
Cc1cc(=O)oc2cc(NC(=O)[C@@H](N)Cc3ccc(O)cc3)ccc12 [H-Tyr-AMC] | ++ | None
Cc1cc(=O)oc2cc(NC(=O)[C@@H](N)Cc3ccccc3)ccc12 [H-Phe-AMC] | +++ | None
CC(C)C[C@H](NC(=O)OCc1ccccc1)C(=O)N[C@@H](CCCNC(=N)N)C(=O)Nc1ccc2nc(C3=N[C@@H](C(=O)O)CS3)sc2c1 [Z-Leu-Arg-Aluc, Z-Leu-Arg-aminoluciferin] | None | None
Cc1cc(=O)oc2cc(NC(=O)CNC(=O)CNC(=O)[C@H](CCCN=C(N)N)NC(=O)[C@H](CC(C)C)NC(=O)OCc3ccccc3)ccc12 [Z-Leu-Arg-Gly-Gly-AMC] (Cbz-LRGG-{AMC}) | None | None
N=C(N)NCCCC(NC(=O)C(Cc1ccccc1)NC(=O)OCc1ccccc1)C(=O)Nc1ccc2nc(C3=NC(C(=O)O)CS3)sc2c1 (stereo not drawn) [Z-Phe-Arg-Aluc, Z-Phe-Arg-aminoluciferin] | None | None
Cc1cc(=O)oc2cc(NC(=O)[C@H](CCCCN)NC(=O)[C@H](CC(C)C)NC(=O)[C@@H](C)N)ccc12 [H-D-Ala-Leu-Lys-AMC] (H-[dA]-Leu-Lys-{AMC}) | None | None
CC(N)C(=O)NC(C)C(=O)NC(Cc1ccccc1)C(=O)Nc1ccc2nc(C3=NC(C(=O)O)CS3)sc2c1 (stereo not drawn) [Ala-Ala-Phe-Aminoluc, Ala-Ala-Phe-aminoluciferin] | None | +++++
N[C@@H](CO)C(=O)N[C@@H](Cc1ccc(O)cc1)C(=O)Nc1ccc2c(C(F)(F)F)cc(=O)oc2c1 [Ser-Tyr-AFC] (H-Ser-Tyr-{AFC}) | None | None
Cc1cc(=O)oc2cc(NC(=O)[C@H](Cc3ccccc3)NC(=O)CN)ccc12 [Gly-Phe-AMC, H-Gly-Phe-AMC] (H-Gly-Phe-{AMC}) | ++ | None
Cc1cc(=O)oc2cc(NC(=O)CNC(=O)CN)ccc12 [H-Gly-Gly-AMC] (H-Gly-Gly-{AMC}) | None | None
CC(N)C(=O)NC(C)C(=O)NC(Cc1ccccc1)C(=O)Nc1ccc2c(c1)Oc1cc(NC(=O)C(Cc3ccccc3)NC(=O)C(C)NC(=O)C(C)N)ccc1C21OC(=O)c2ccccc21 (stereo not drawn) [(Ala-Ala-Phe) 2 R110, (Ala-Ala-Phe)2-R110] | None | +++++
Cc1cc(=O)oc2cc(NC(=O)[C@H](Cc3ccccc3)NC(=O)[C@H](C)NC(=O)[C@H](C)NC(=O)CCCC(=O)O)ccc12 [Gluty-Ala-Ala-Phe-AMC, Glutyl-Ala-Ala-Phe-AMC] (Glutaryl-Ala-Ala-Phe-{AMC}) | None | None
Suc-RPFHLLVY-{AMC} [S-R-P-F-H-L-L-V-Y-AMC] | None | None
CSCC[C@H](NC(=O)[C@H](C)NC(=O)CNC(=O)OCc1ccccc1)C(=O)Nc1ccc2c(C)cc(=O)oc2c1 [Z-Gly-Ala-Met-AMC] (Cbz-Gly-Ala-Met-{AMC}) | None | None
Cc1cc(=O)oc2cc(NC(=O)[C@H](Cc3ccc(O)cc3)NC(=O)[C@@H](NC(=O)[C@H](CC(C)C)NC(=O)[C@H](CC(C)C)NC(=O)CCC(=O)O)C(C)C)ccc12 [Suc-Leu-Leu-Val-Tyr-AMC] (Suc-LLVY-{AMC}) | None | +
NCC(=O)N[C@@H](Cc1ccccc1)C(=O)Nc1ccc2c(C(F)(F)F)cc(=O)oc2c1 [Gly-Phe-AFC] (H-Gly-Phe-{AFC}) | +++++ | None
Cc1cc(=O)oc2cc(NC(=O)[C@H](CC(C)C)NC(=O)CNC(=O)CNC(=O)OCc3ccccc3)ccc12 [Z-Gly-Gly-Leu-AMC] (Cbz-Gly-Gly-Leu-{AMC}) | ++* | None
